Test results as given in US20050192245A1, “Medicinal composition for treating arteriosclerosis” (SANKYO COMPANY, LIMITED, priority 2002, published 2005).

Tested on: atherogenic lesions of the right femoral artery (arteriosclerosis)
Assay: Atherogenic lesions in cholesterol diet-loaded rabbits with Nylon thread-induced chronic endothelial damage (right femoral artery)
Assay type: in vivo, male New Zealand White rabbits
Conditions: oral, 8 weeks
Protocol: A test was conducted in which male New Zealand White rabbits (body weights: 1.0 to 1.5 kg) were loaded for 10 weeks with a cholesterol diet (0.5% cholesterol, 3% peanut oil and 3% coconut oil) in the amounts indicated below. The animals were fed 40 g for the first two weeks, 50 g for the next four weeks, and 60 g for the final four weeks. Two weeks after cholesterol diet loading, a Nylon thread was aseptically inserted from the right femoral artery to the vicinity of the diaphragm to induce chronic endothelial damage in the abdominal aorta and right femoral artery. The Nylon thread was immobilized for 8 weeks at the insertion site. Following surgery to insert the Nylon thread, the animals were grouped so that the average values of serum total cholesterol, triglycerides, platelet aggregation and body weight of each group were nearly equal, followed by oral administration of the ADP receptor antagonist and the ACAT inhibitor either alone or combined. After necrotomy of the animals 8 weeks after administration, the right femoral arteries were excised and the ratio of the surface area covered by atherogenic lesions was calculated. After exposing the right femoral artery (by 1 cm from the branch of the iliac artery), it was photographed with a digital camera (COOLPX990, Nikon) followed by measurement of the surface area of the lumen and the surface area covered by atherogenic lesions using an image analyzer, and calculation of the ratio of the surface area covered by atherogenic lesions relative to the surface area of the aorta lumen as a percentage. In addition, a section 1 cm from the branch of the iliac artery on the side of the femoral artery was cut out and after fixing in methanol-carnoy solution, was embedded in a paraffin block. After slicing into thin sections, the sections were immunostained using Elastica-Masson stain and anti-human α-actin antibody (1A4) followed by calculating the degree of medial intimal thickness and the smooth muscle cell occupancy rate using an image analyzer. In the table, Compound A represent 2-acetoxy-5-(α-cyclopropylcarbonyl-2-fluorobenzyl)-4,5,6,7-tetrahydrothieno[3,2-c]pyridine, and Compound B represents sulfate of N-(1-octyl-5-carboxymethyl-4,6-dimethylindolin-7-yl)-2,2-dimethylpropanamide.

| Compound | Medial intimal thickness (%) (Compound A 1 mg/kg) | Ratio of lesion surface area (%) (Compound A 1 mg/kg) | Smooth muscle cell occupancy rate in lesion at 1 mg/kg (Oryctolagus cuniculus, 1344 h, Compound A 1 mg/kg) | Medial intimal thickness (%) (Compound B 3 mg/kg) | Ratio of lesion surface area (%) (Compound B 3 mg/kg) | Smooth muscle cell occupancy rate (%) (Compound B 3 mg/kg) |
| --- | --- | --- | --- | --- | --- | --- |
| CC(=O)Oc1cc2c(s1)CCN(C(C(=O)C1CC1)c1ccccc1F)C2 (stereo not drawn) [Compound A, 2-acetoxy-5-(α-cyclopropylcarbonyl-2-fluorobenzyl)-4,5,6,7-tetrahydrothieno[3,2-c]pyridine] | 275.4 ± 153.4% | 47.2 ± 14.2% | 5.5 ± 1.5% |  |  |  |
| CCCCCCCCN1CCc2c(C)c(CC(=O)O)c(C)c(NC(=O)C(C)(C)C)c21.O=S(=O)(O)O [Compound B, sulfate of N-(1-octyl-5-carboxymethyl-4,6-dimethylindolin-7-yl)-2,2-dimethylpropanamide] |  |  |  | 60.0 ± 34.2 % | 40.6 ± 19.8 % | 25.6 ± 14.8 % |
